From US12617779B2, “Self degradation-type CDK9 inhibitor prodrug and liposome encapsulating same” (Sumitomo Pharma Co., Ltd., priority 2021, dated 2026)

What was measured:
[1] = Liposome encapsulation test, remote loading method (Experimental Example 4); assay type: physicochemical;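 on Encapsulation efficiency: encapsulated compound as percent of compound amount introduced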;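 on Encapsulation rate: encapsulated compound as percent of compound in liposome solution after insolubles removed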
Protocol: For Example 1, Example 2, Example 3, Example 4, Example 5, Example 6, Example 7, Example 8, Example 9, Example 10, Example 11, Example 12, Example 13, Example 14, Example 15, Example 16, Example 17 and Alvocidib, an encapsulation test in liposomes was performed using a remote loading method.
<Liposome Encapsulation Test of Example 1, Example 2, Example 5, Example 6, Example 9, Example 10, Example 11, Example 12, Example 13, Example 14, Example 15, and Example 16>
(§1) Hydrogenated soybean phosphatidylcholine (COATSOME NC-21E, manufactured by NOF CORPORATION, 7.77 g), cholesterol (manufactured by Sigma, 2.78 g) and distearoylphosphatidylethanolamine-methoxypolyethylene glycol 2000 (SUNBRIGHT DSPE-020CN, manufactured by NOF CORPORATION, 2.47 g) were dissolved in tert-butyl alcohol (720 mL) warmed to 65° C. The solution was placed in an eggplant flask and frozen in a dry ice-acetone bath, and then the tert-butyl alcohol was removed by evaporation under reduced pressure to give a lipid mixture.
To the above lipid mixture was added a 250 mM ammonium sulfate solution (240 mL), and the mixture was warmed to 65° C., and dispersed by a homogenizer (ULTRA-TURRAX, manufactured by IKA) to give a crude liposome dispersion. Then, the crude liposome dispersion was dispersed by a high pressure homogenizer (Nano-Mizer NM2, manufactured by YOSHIDA KIKAI CO., LTD.) at a pressure of 100 MPa to give liposomes with an average particle size (Z-average) of about 80 nm. The liposome outer solution was replaced with 10 mM L-histidine/10% sucrose solution (pH 6.5) using a dialysis cassette (Slide-A-Lyzer G2 Dialysis Cassettes 20K MWCO, manufactured by Thermo Scientific) to give an empty liposome solution. The solution was filtered through a 0.22 μm membrane filter, and a 10 mM L-histidine/10% sucrose solution (pH 6.5) was added thereto to adjust the total lipid concentration to 50 mM (50 μmol/mL). The lipid concentration was determined by quantitatively analyzing cholesterol using HPLC and calculating the total lipid concentration from the lipid mixing ratio. The amount for the above adjustment was increased or decreased as appropriate.
The compound (10 mg) was weighed, and the empty liposome solution (1 mL) with a total lipid concentration of 50 mM was added thereto. The solution was adjusted to pH 5 to 6 with 1 mol/L hydrochloric acid or 1 mol/L aqueous sodium hydroxide solution as necessary, warmed in a 65° C. water bath for 2 to 3 minutes, and ice-cooled. The mixture was centrifuged at 15,000×g for 5 minutes to precipitate and remove insoluble substances.
The liposome solution (100 μL) after removing insoluble substances was taken on an ultrafiltration filter (Amicon Ultra, 100K, 0.5 mL, manufactured by Merck) and centrifuged at 4° C., 15,000×g for 10 minutes. The compound concentrations in the liposome solution after removing insoluble substances and in the filtrate after ultrafiltration were determined by HPLC, and the encapsulation rate, encapsulation efficiency, and encapsulated compound content per 50 μmol of lipid were calculated by the following formula.
The measurement conditions for HPLC are as follows.
An empty liposome solution with a total lipid concentration of 75 mM was prepared by the same procedure as for the above example compound group. Each compound was weighed, and the empty liposome solution with a total lipid concentration of 75 mM was added thereto such that the compound concentration became 15 mg/mL. The solution was adjusted to pH 5 to 6 with 1 mol/L hydrochloric acid or 1 mol/L aqueous sodium hydroxide solution, warmed in a 65° C. water bath for 3 minutes, and ice-cooled. Hereafter, the encapsulation rate and encapsulation efficiency were calculated by the same procedure as for the above example compound group. The encapsulated compound content per 50 μmol of lipid was calculated by the following formula.
[formula] <Liposome Encapsulation Test of Example 7, Example 8 and Example 17> […]

[2] = mice, 2.5 mg/kg administration; cited from earlier work
[3] = Pharmacokinetic test, intravenous solution and liposome formulations in mice (Experimental Example 6); assay type: in vivo; conditions: female BALB/c mice
Protocol: This was used as a solution formulation.
This was used as a liposome formulation.
as §1, with “3.238” for “7.77”, “1.160” for “2.78”, “1,2-disteroyl-rac-glycero-3-methylpolyoxyethylen” for “distearoylphosphatidylethanolamine-methoxypolyethylene glycol”, “GS-020,” for “DSPE-020CN,”, “0.983” for “2.47”, “(300” for “(720”
To the above lipid mixture was added to a 250 mM ammonium sulfate solution (100 mL), and the mixture was warmed to 65° C., and dispersed by a homogenizer (ULTRA-TURRAX, manufactured by IKA) to give a crude liposome dispersion. […] The solution was filtered through a 0.22 μm membrane filter to adjust the total lipid concentration to 75 mM (75 μmol/mL). […] The solution was adjusted to pH 5 to 6 with 1 mol/L aqueous sodium hydroxide solution, warmed in a 65° C. water bath for 3 minutes, and ice-cooled. The liposome outer solution was replaced with 10 mM tartrate buffer solution/10% sucrose solution (pH 4) using a dialysis cassette (Slide-A-Lyzer G2 Dialysis Cassettes 20K MWCO, manufactured by Thermo Scientific), followed by filtration through a 0.22 μm membrane filter to adjust the concentration.
The solution formulation or liposome formulation was instantly administered intravenously to 7-week-old female BALB/c mice, and the blood was collected over time from the jugular vein without anesthesia up to 24 hours after administration for the solution formulation administration group and up to 72 hours after administration for the liposome formulation administration group. […] The plasma sample was centrifuged, and the concentrations of the test compound and Alvocidib in the obtained supernatant were determined by LC-MS/MS.

[4] = Evaluation of conversion rate to active form in human plasma (Experimental Example 3); assay type: in vitro ADME; conditions: human, 0.2 μmol/L
Protocol: (§2) For Example 1, Example 2, Example 3, Example 4, Example 5, Example 6, Comparative Example 3, Comparative Example 4, Comparative Example 6, Comparative Example 7, Comparative Example 8, Comparative Example 9, Comparative Example 10 and Comparative Example 12, the attrition rate of the test compound and the conversion rate of the test compound to Alvocidib in human plasma and BALB/c mouse plasma were calculated by the following method.
(§3) The test compound was added to human plasma or BALB/c mouse plasma at a concentration of 0.2 μmol/L, and incubated at 37° C. The peak areas of the test compound and Alvocidib in the sample were determined by LC-MS/MS after 0, 30 and 60 minutes for Example 1, Example 2, Example 3, Example 4, Example 5 and Example 6, and after 0, 60 and 120 minutes for Comparative Example 3, Comparative Example 4, Comparative Example 6, Comparative Example 7, Comparative Example 8, Comparative Example 9, Comparative Example 10 and Comparative Example 12, and the attrition rate of the test compound and the conversion rate of the test compound to Alvocidib were calculated by the following formula. Attrition rate of test compound (%):(peak area of test compound in sample/peak area of test compound in sample after 0 minute)×100 Conversion rate to Alvocidib (%):(peak area of Alvocidib in sample/peak area of Alvocidib in reaction solution containing 0.2 μmol/L Alvocidib)×100
(§4) The measurement conditions for LC-MS/MS are as follows. • HPLC: Prominence system (Shimadzu Corporation) • MS/MS: • Example 1, Example 2, Example 3, Example 4, Example 5, Example 6, Comparative Example 8 (mouse), Comparative Example 10 (mouse) and Comparative Example 12 (mouse) • QTRAP5500 (SCIEX) • Comparative Example 6, Comparative Example 7, Comparative Example 8 (human), Comparative Example 9, Comparative Example 10 (human) and Comparative Example 12 (human) • 4000 QTRAP (SCIEX) • column: • other than Example 3 and Example 4 • Cadenza CD-C18, 3 μm, 50×2 mm (Imtakt Corporation) • Example 3 and Example 4 • Kinetex C8, 2.6 μm, 50×2.1 mm (Phenomenex) • column temperature: 40° C. • mobile phase: • A: water containing 0.1% formic acid • B: acetonitrile containing 0.1% formic acid • A/B (min): • Example 1, Example 2, Example 5, Example 6, Comparative Example 8 (mouse), Comparative Example 10 (mouse) and Comparative Example 12 (mouse) • 90/10(0)→40/60(5.0)→10/90(5.1)→10/90(6.5)→90/10(6.6)→90/10(8.0) • Example 3 and Example 4 • 86/14(0)→86/14(3.5)→10/90(5.5)→10/90(6.5)→86/14(6.6)→86/14(9.5) • Comparative Example 6, Comparative Example 7, Comparative Example 8 (human), Comparative Example 9, Comparative Example 10 (human) and Comparative Example 12 (human) • 90/10(0)→10/90(2.5)→10/90(3.5)→90/10(3.6)→90/10(5.0) • flow rate: 0.4 mL/min • detection: ESI (positive mode) • injection: 1 to 5 μL

[5] = Evaluation of conversion rate to active form in BALB/c mouse plasma (Experimental Example 3); assay type: in vitro ADME; conditions: BALB/c, mouse, 0.2 μmol/L
Protocol: as §2, §3, §4

[6] = Evaluation of conversion rate to active form in buffer solution (Experimental Example 1); assay type: physicochemical
Summary of the method: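 Stability across pH: 25 umol/L, 37° C, 50 mM citrate/phosphate, pH 5.0–7.4. Sampling at 0, 0.5, 1, 2, 3 h; HPLC determined loss of compound and Alvocidib generated.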

[7] = Compound concentration when encapsulated 5 mg/mL
[8] = Compound concentration when encapsulated 10 mg/mL

CN1CC[C@H](c2c(O)cc(O)c3c(=O)cc(-c4ccccc4Cl)oc23)[C@H](O)C1.Cl [Alvocidib hydrochloride, 2-(2-chlorophenyl)-5,7-dihydroxy-8-[(3S,4R)-3-hydroxy-1-methylpiperidin-4-yl]-4H-chromen-4-one hydrochloride, reference compound]
Encapsulated compound content per 50 μmol of lipid [1, 7]: 4.8 mg | Encapsulation efficiency [1, 7]: 96.2% | Encapsulation rate [1, 7]: 99.5% | Encapsulation rate [1, 8]: not encapsulated due to gelation | Encapsulation in liposomes ([1]; concentration 5 mg/mL): could be encapsulated in liposomes | Encapsulation in liposomes ([1]; concentration of 10 mg/mL): could not be encapsulated in liposomes

CN1CC[C@H](c2c(O)cc(O)c3c(=O)cc(-c4ccccc4Cl)oc23)[C@H](O)C1 [Alvocidib]
AUC [2]: 3.4 µmol·min/L

CCC(=O)O[C@@H]1CN(C)CC[C@@H]1c1c(O)cc(O)c2c(=O)cc(-c3ccccc3Cl)oc12 [Comparative Example 6]
Blood retention of liposome formulation compared with the corresponding solution formulation [3]: did not show improved blood retention | Production rate (%) of Alvocidib ([4]; 0 min): 5% | Residual rate (%) of test compound ([4]; 0 min): 100% | Production rate (%) of Alvocidib ([4]; 60 min): 12% | Residual rate (%) of test compound ([4]; 60 min): 89% | Production rate (%) of Alvocidib ([4]; 120 min): 15% | Residual rate (%) of test compound ([4]; 120 min): 89% | Production rate (%) of Alvocidib ([5]; 0 min): 6% | Residual rate (%) of test compound ([5]; 0 min): 100% | Production rate (%) of Alvocidib ([5]; 60 min): 48% | Residual rate (%) of test compound ([5]; 60 min): 48% | Production rate (%) of Alvocidib ([5]; 120 min): 66% | Residual rate (%) of test compound ([5]; 120 min): 33% | Production rate of Alvocidib ([6]; pH7.4, 0 hr): 4.3% | Residual rate ([6]; pH7.4, 0 hr): 93.7% | Conversion to Alvocidib at pH 7.4 ([6]; pH 7.4, 37° C., up to 3 hours): slowly converted to Alvocidib | Production rate of Alvocidib ([6]; pH7.4, 0.5 hr): 4.4% | Residual rate ([6]; pH7.4, 0.5 hr): 93.6% | Production rate of Alvocidib ([6]; pH7.4, 1 hr): 4.5% | Residual rate ([6]; pH7.4, 1 hr): 95.1% | Production rate of Alvocidib ([6]; pH7.4, 2 hr): 4.7% | Residual rate ([6]; pH7.4, 2 hr): 94.9%

CN1CC[C@H](c2c(OC(=O)N(C)C[C@@H]3COCCN3)cc(O)c3c(=O)cc(-c4ccccc4Cl)oc23)[C@H](O)C1 [Example 17, 2-(2-chlorophenyl)-5-hydroxy-8-[(3S,4R)-3-hydroxy-1-methylpiperidin-4-yl]-4-oxo-4H-1-benzopyran-7-yl methyl{[(3R)-morpholin-3-yl]methyl}carbamate]
Encapsulated compound content per 50 μmol of lipid [1, 8]: 2.4 mg | Encapsulation efficiency [1, 8]: 23.8% | Encapsulation rate [1, 8]: 26.5%
